The source of these data is PubChem BioAssay AID588647 (Sanford-Burnham Center for Chemical Genomics, 2011).

pIC50: −log10 of the molar value. Where “and” joins values, the source holds several entries; their conditions need not be identical. Equal entries are not always repeated. Calls of active or inactive are those of the source. No rule for the calls is given here.

This assay concerns the target intestinal alkaline phosphatase (Mus musculus). The experiment in a line: mouse IAP inhibition by analogs – biochemical, luminescence, set 2, SAR follow-up (AID 588647). Conditions: purified mouse IAP, luminescent substrate read-out.
Take `Cc1ccc(NC(=O)CCNS(=O)(=O)c2ccc3c(c2)oc(=O)n3C)cc1`: the negative-log IC50 (pIC50) is 4.00.

With `COc1ccc(CCNC(=O)CCCNS(=O)(=O)c2ccc3[nH]c(=O)oc3c2)cc1`, the pIC50 is 5.13.

As to `O=C(N/N=C/c1ccccc1F)c1ccc(O)cc1`, the IC50 is > 100 µM (inactive).

Take `O=C(N/N=C/c1ccccc1F)c1ccc(O)cc1O`: the IC50 is > 100 µM (inactive).

With `COc1ccc(CNC(=O)CCNS(=O)(=O)c2ccc3ccccc3c2)c(OC)c1`, the IC50 is > 100 µM (inactive).

As to `O=C(N/N=C/c1ccccc1Cl)c1cc(O)c(O)c(O)c1`, the pIC50 was 5.13.

For the compound `O=C(CCNS(=O)(=O)c1ccc2[nH]c(=O)oc2c1)NCc1cccc(C(F)(F)F)c1`, the negative logarithm of the IC50 (pIC50) was 4.15.

In the case of `O=C(CCNS(=O)(=O)c1ccc2[nH]c(=O)oc2c1)NCc1ccc(Cl)cc1`, the negative-log IC50 (pIC50) is 4.06.

As for `COc1ccc(/C=N/NC(=O)c2cc(O)c(O)c(O)c2)cc1OC`, the IC50 is > 100 µM (inactive).

Consider `O=C(CCNS(=O)(=O)c1ccc2[nH]c(=O)oc2c1)NCc1cccc(F)c1`, for which the IC50 is > 100 µM (inactive).

Take `Cc1ccc(CNC(=O)C2CCCN(S(=O)(=O)c3ccc4[nH]c(=O)oc4c3)C2)cc1` (stereo unspecified): the IC50 was > 100 µM (inactive).

Regarding `O=C(CCNS(=O)(=O)c1ccc2[nH]c(=O)oc2c1)NCc1ccc(C(F)(F)F)cc1`, the IC50 is > 100 µM (inactive).

Regarding `Cc1cc(NC(=O)CCNS(=O)(=O)c2ccc3[nH]c(=O)oc3c2)ccc1Br`, the negative-log IC50 (pIC50) is 4.03.

Consider `CC(C)(C)c1ccc(/C=N/NC(=O)c2cc(O)c(O)c(O)c2)cc1`, for which the IC50 is > 100 µM (inactive).

With `O=C(CCNS(=O)(=O)c1ccc2c(c1)CCC2)NCCc1ccc2c(c1)OCO2`, the IC50 is > 100 µM (inactive).

Take `COc1ccc(/C=N\NC(=O)c2cc(O)c(O)c(O)c2)cc1CN1CCN(c2ccc(F)cc2)CC1`: the negative-log IC50 (pIC50) is 4.55.

Take `O=C(NCc1ccccc1)C1CCCN(S(=O)(=O)c2ccc3[nH]c(=O)oc3c2)C1` (stereo unspecified): the IC50 is > 100 µM (inactive).

For the compound `O=C(N/N=C/c1ccc(F)cc1F)c1ccc(O)cc1`, the IC50 is > 100 µM (inactive).

As to `CC(=NNC(=O)c1ccccc1OCCOc1ccccc1)c1ccccc1F`, the IC50 is > 100 µM (inactive).

Turning to `CSc1cccc(NC(=O)CCNS(=O)(=O)c2ccc3c(c2)oc(=O)n3C)c1`, the IC50 was > 100 µM (inactive).

Turning to `O=C(NCc1ccc2c(c1)OCO2)C1CCCN(S(=O)(=O)c2ccc3[nH]c(=O)oc3c2)C1` (stereo unspecified), the IC50 was > 100 µM (inactive).

Regarding `O=C(N/N=C/c1c(F)cccc1Cl)c1cc(O)c(O)c(O)c1`, the pIC50 is 5.10.

Take `COc1cccc(C(=O)N/N=C/c2ccccc2F)c1`: the IC50 is > 100 µM (inactive).

As to `Cc1ccc(C)c(CNC(=O)C2CCCN(S(=O)(=O)c3ccc4[nH]c(=O)oc4c3)C2)c1` (stereo unspecified), the IC50 was > 100 µM (inactive).

As for `COc1ccc(OC)c(NC(=O)CCNS(=O)(=O)c2ccc3c(c2)oc(=O)n3C)c1`, the IC50 is > 100 µM (inactive).

For the compound `O=C(CCCNS(=O)(=O)c1ccc2[nH]c(=O)oc2c1)NCCc1ccc(O)cc1`, the pIC50 is 5.38.

For `N#Cc1ccc(NC(=O)CNS(=O)(=O)c2ccc3[nH]c(=O)oc3c2)cc1`, the pIC50 was 5.80 and 5.33.

In the case of `COc1ccccc1CNC(=O)CCNS(=O)(=O)c1ccc2[nH]c(=O)oc2c1`, the IC50 was > 100 µM (inactive).

As for `O=C(CCS(=O)(=O)Nc1ccc2[nH]c(=O)oc2c1)NCc1cccc(Cl)c1`, the pIC50 was 4.17.

In the case of `COc1ccc(NS(=O)(=O)c2ccc3[nH]c(=O)oc3c2)cc1OC`, the IC50 was > 100 µM (inactive).

With `N#Cc1cccc(NS(=O)(=O)c2ccc3[nH]c(=O)oc3c2)c1`, the IC50 was > 100 µM (inactive).

Turning to `N#Cc1cccc(NC(=O)CNS(=O)(=O)c2ccc3[nH]c(=O)oc3c2)c1`, the concentration for half-maximal inhibition (IC50) is 1.4 µM and > 100 µM (inactive).

Consider `Cc1ccc(C)c(NS(=O)(=O)c2ccc3[nH]c(=O)oc3c2)c1`, for which the IC50 was > 100 µM (inactive).

For the compound `O=C(N/N=C/c1ccc(Cl)c(Cl)c1)c1cc(O)c(O)c(O)c1`, the pIC50 is 5.02.

Regarding `COc1ccc(CNC(=O)C2CCCN(S(=O)(=O)c3ccc4[nH]c(=O)oc4c3)C2)cc1` (stereo unspecified), the IC50 is > 100 µM (inactive).

`COc1ccc(CNC(=O)CCNS(=O)(=O)c2ccc3[nH]c(=O)oc3c2)cc1`: the pIC50 was 5.52 and 5.64.

Turning to `O=C(N/N=C/c1ccc(Br)cc1F)c1cc(O)ccc1O`, the IC50 was > 100 µM (inactive).

As to `COc1ccc(CNC(=O)CCCNS(=O)(=O)c2ccc3[nH]c(=O)oc3c2)cc1OC`, the negative-log IC50 (pIC50) was 4.11.

In the case of `COc1ccc(CNC(=O)CCNS(=O)(=O)c2ccc3c(c2)CCC3)c(OC)c1`, the IC50 was > 100 µM (inactive).

Consider `COc1ccc(C(=O)N/N=C/c2c(F)cccc2Cl)cc1OC`, for which the IC50 was > 100 µM (inactive).

As to `O=C(N/N=C/c1ccccc1C(F)(F)F)c1cc(O)c(O)c(O)c1`, the pIC50 is 5.07.

As for `CCOc1cc(C(=O)N/N=C/c2c(F)cccc2Cl)cc(OCC)c1OCC`, the IC50 is > 100 µM (inactive).

As to `O=C(CNS(=O)(=O)c1ccc2[nH]c(=O)oc2c1)NCCc1ccc2c(c1)OCO2`, the IC50 is > 100 µM (inactive).

Consider `O=C(CCNS(=O)(=O)c1ccc2[nH]c(=O)oc2c1)NCc1ccc(F)cc1`, for which the IC50 was > 100 µM (inactive).

Take `COc1cc(C(=O)N/N=C/c2c(F)cccc2Cl)cc(OC)c1OC`: the IC50 is > 100 µM (inactive).

With `O=C(N/N=C/c1c(F)cccc1F)c1ccc(O)cc1`, the IC50 was > 100 µM (inactive).

Regarding `CCc1ccc(NC(=O)C2CCCN(S(=O)(=O)c3ccc4c(c3)oc(=O)n4C)C2)cc1` (stereo unspecified), the IC50 was > 100 µM (inactive).

With `O=C(NCc1ccc(F)cc1)C1CCCN(S(=O)(=O)c2ccc3[nH]c(=O)oc3c2)C1` (stereo unspecified), the IC50 is > 100 µM (inactive).

In the case of `O=C(N/N=C/c1cccc(Cl)c1Cl)c1cc(O)c(O)c(O)c1`, the pIC50 was 4.70.

With `Cc1ccc(NC(=O)CCNS(=O)(=O)c2ccc3c(c2)oc(=O)n3C)cc1C`, the IC50 was > 100 µM (inactive).

With `COc1ccc(NC(=O)CCCNS(=O)(=O)c2ccc3[nH]c(=O)oc3c2)cc1OC`, the pIC50 is 5.82.

For `N#Cc1cccc(CNC(=O)CCNS(=O)(=O)c2ccc3[nH]c(=O)oc3c2)c1`, the negative logarithm of the IC50 (pIC50) is 5.70.

`CN(C)c1ccc(CNC(=O)C2CCCN(S(=O)(=O)c3ccc4[nH]c(=O)oc4c3)C2)cc1` (stereo unspecified): the IC50 is > 100 µM (inactive).

As for `C/C(=N\NC(=O)c1cc(O)c(O)c(O)c1)c1ccc(O)cc1O`, the pIC50 is 6.11.

Take `COc1ccccc1CNC(=O)CCCNS(=O)(=O)c1ccc2[nH]c(=O)oc2c1`: the pIC50 was 5.70 and 5.27.

As to `Cc1ccc(CNC(=O)CCNS(=O)(=O)c2ccc3[nH]c(=O)oc3c2)cc1`, the pIC50 was 4.05.

In the case of `O=C(CCNS(=O)(=O)c1ccc2[nH]c(=O)oc2c1)NCc1ccccc1Cl`, the IC50 is > 100 µM (inactive).

In the case of `Cc1ccc(NC(=O)CCNS(=O)(=O)c2ccc3[nH]c(=O)oc3c2)cc1C`, the pIC50 was 4.08.

As to `O=C(CCNS(=O)(=O)c1ccc2[nH]c(=O)oc2c1)NCc1cccc(Cl)c1`, the IC50 was > 100 µM (inactive).

Turning to `COc1ccc(CNC(=O)CNS(=O)(=O)c2ccc3[nH]c(=O)oc3c2)c(OC)c1`, the IC50 was > 100 µM (inactive).

Turning to `O=C(CCCNS(=O)(=O)c1ccc2[nH]c(=O)oc2c1)NCc1ccccc1Cl`, the half-maximal inhibitory concentration (IC50) was 1.6 µM and > 100 µM (inactive).

Turning to `CC(C)c1ccc(NC(=O)C2CCCN(S(=O)(=O)c3ccc4c(c3)oc(=O)n4C)C2)cc1` (stereo unspecified), the IC50 is > 100 µM (inactive).

In the case of `O=C(CCS(=O)(=O)Nc1ccc2[nH]c(=O)oc2c1)NCc1cccc(F)c1`, the pIC50 is 4.18.

As for `O=C(N/N=C/c1ccc(F)c(Br)c1)c1cc(O)c(O)c(O)c1`, the pIC50 is 5.08.

With `CC(C)c1ccc(NC(=O)CCNS(=O)(=O)c2ccc3c(c2)oc(=O)n3C)cc1`, the IC50 was > 100 µM (inactive).

For `COc1ccc(CNS(=O)(=O)c2ccc3[nH]c(=O)oc3c2)cc1`, the pIC50 was 4.01.

`COc1ccc(/C=N/NC(=O)c2cc(O)c(O)c(O)c2)c(OC)c1`: the pIC50 was 5.08.

As to `O=C(CCNS(=O)(=O)c1ccc2[nH]c(=O)oc2c1)NCc1ccccc1F`, the IC50 is > 100 µM (inactive).

As to `CCc1ccc(NC(=O)CCNS(=O)(=O)c2ccc3c(c2)oc(=O)n3C)cc1`, the IC50 was > 100 µM (inactive).

For `COc1ccc(NC(=O)CCNS(=O)(=O)c2ccc3c(c2)CCC3)cc1OC`, the IC50 was > 100 µM (inactive).

On to `Cc1ccc(C)c(NC(=O)CNS(=O)(=O)c2ccc3[nH]c(=O)oc3c2)c1`, for which the negative-log IC50 (pIC50) was 6.03 and 6.27.

For the compound `O=C(CCNS(=O)(=O)c1ccc2[nH]c(=O)oc2c1)Nc1ccc2c(c1)OCO2`, the pIC50 is 4.92.

As for `COc1ccc(C(=O)N/N=C/c2ccccc2F)cc1`, the IC50 was > 100 µM (inactive).

With `O=C(CCNS(=O)(=O)c1ccc2[nH]c(=O)oc2c1)NCc1ccccc1`, the pIC50 was 4.09.

On to `O=C(CCCNS(=O)(=O)c1ccc2[nH]c(=O)oc2c1)NCc1ccc2c(c1)OCO2`, for which the pIC50 is 4.35.

Regarding `COc1ccc(NC(=O)CCNS(=O)(=O)c2ccc3ccccc3c2)cc1OC`, the IC50 is > 100 µM (inactive).

For `N#Cc1ccc(NS(=O)(=O)c2ccc3[nH]c(=O)oc3c2)cc1`, the IC50 was > 100 µM (inactive).

`Cc1ccc(C)c(NC(=O)CCNS(=O)(=O)c2ccc3[nH]c(=O)oc3c2)c1`: the negative logarithm of the IC50 (pIC50) is 6.40.

For the compound `COc1ccc(NC(=O)CCNS(=O)(=O)c2ccc3[nH]c(=O)oc3c2)cc1OC`, the pIC50 was 6.28 and 6.27.

For `O=C(N/N=C/c1cc(Br)ccc1F)c1ccc(O)cc1`, the IC50 is > 100 µM (inactive).

`O=C(CCNS(=O)(=O)c1ccc2[nH]c(=O)oc2c1)NCc1ccc(O)c(O)c1`: the pIC50 was 5.11.

Consider `O=C(N/N=C/c1c(F)cccc1Cl)c1ccc(O)cc1`, for which the IC50 is > 100 µM (inactive).

For `O=C(CCNS(=O)(=O)c1ccc2[nH]c(=O)oc2c1)NCCc1ccc(O)cc1`, the IC50 is > 100 µM (inactive).

For the compound `Cc1ccccc1CNC(=O)C1CCCN(S(=O)(=O)c2ccc3[nH]c(=O)oc3c2)C1` (stereo unspecified), the IC50 was > 100 µM (inactive).

For `COc1cc(/C=N/NC(=O)c2cc(O)c(O)c(O)c2)ccc1O`, the pIC50 was 5.41.

`Cc1ccccc1CNC(=O)CCCNS(=O)(=O)c1ccc2[nH]c(=O)oc2c1`: the IC50 is > 100 µM (inactive).
